pIC50: −log10 of the molar value.

In this assay the target is T1, Acetylcholinesterase (AChE) (Electrophorus electricus, UniProt O42275).
T1 construct: purchased Sigma Aldrich type VI-S
T1 sequence (O42275 24-633): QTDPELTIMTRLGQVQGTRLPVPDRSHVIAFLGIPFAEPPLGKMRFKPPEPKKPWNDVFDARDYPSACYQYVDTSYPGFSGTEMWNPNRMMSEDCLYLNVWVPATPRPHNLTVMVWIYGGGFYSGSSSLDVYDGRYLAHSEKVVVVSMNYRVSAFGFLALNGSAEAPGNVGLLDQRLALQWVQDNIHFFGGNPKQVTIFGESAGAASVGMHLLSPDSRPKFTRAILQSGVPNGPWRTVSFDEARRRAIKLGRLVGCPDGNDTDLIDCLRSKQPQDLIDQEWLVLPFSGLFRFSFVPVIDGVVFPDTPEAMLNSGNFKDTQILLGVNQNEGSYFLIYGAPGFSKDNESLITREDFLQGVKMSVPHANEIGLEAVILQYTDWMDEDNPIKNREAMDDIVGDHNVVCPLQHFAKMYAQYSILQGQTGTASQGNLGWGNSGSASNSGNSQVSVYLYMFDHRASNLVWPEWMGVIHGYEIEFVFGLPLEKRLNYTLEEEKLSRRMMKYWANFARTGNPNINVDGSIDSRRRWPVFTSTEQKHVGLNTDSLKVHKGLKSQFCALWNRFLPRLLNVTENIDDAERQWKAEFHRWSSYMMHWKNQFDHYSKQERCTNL
Description: In vitro anti-acetylcholinesterase assay (Ellman's method). In kind it is biochemical. Conditions: read-out: AChE Inhibition (IC50). From the text: In vitro enzyme assay reagents were purchased as previously described. Acetylcholinesterase (AChE) from Electrophorus electricus type VI-S lyophilized powder (137 units/mg) was acquired from Sigma Aldrich (St. Louis, MO, USA). Substrate acetylthiocholine iodide (ATCl) and sodium phosphate monobasic and dibasic anhydrous used for buffer preparation were obtained from Wako Pure Chemical (Osaka, Japan). Coloring reagent 5,5′-dithio-bis-(2-nitrobenzoic acid) (DTNB) was acquired from Nacalai Tesque (Kyoto, Japan). […] All other reagents acquired from commercial sources were of analytical grade.
The plant fractions and isolated compounds were evaluated for their anti-AChE potential in triplicate based on the Ellman’s method described previously.
As to `CC(C)=CCCC(C)=CCc1c(O)cc2c(c1O)C(=O)CC(c1cc(O)cc(O)c1)O2` (centres unmarked) [Compound 3, schizolaenone C], the pIC50 (commonly −log10 of the IC50, conventionally taken in molar units) was 5.17.
As to `CC/C=C\C/C=C\C/C=C\CCCCCCCc1cccc(O)c1C(=O)O` [Compound 4, 6-heptadeca-8Z,11Z,14Z-trienyl salicylic acid], the pIC50 is 5.62.
Then `CC(C)=CCC/C(C)=C/Cc1c(C2CC(=O)c3c(O)cc(O)c(CC=C(C)C)c3O2)ccc(O)c1O` (centres unmarked) [Compound 1, solophenol A], with 6.00; and `CCCC/C=C\C/C=C\CCCCCCCCc1cccc(O)c1C(=O)O` [Compound 5, 6-heptadeca-9Z,12Z-dienyl salicylic acid], with 6.27.
Then `CC(C)=CCC/C(C)=C/Cc1c([C@@H]2CC(=O)c3c(O)cc(O)cc3O2)ccc(O)c1O` [Compound 2, nymphaeol B], with 4.48.

(Values after paper PMC9102781 (Molecules, 2022).)
